Measured values published in ChEMBL document CHEMBL2062380, “Discovery of a novel pyrrole derivative 1-[5-(2-fluorophenyl)-1-(pyridin-3-ylsulfonyl)-1H-pyrrol-3-yl]-N-methylmethanamine fumarate (TAK-438) as a potassium-competitive acid blocker (P-CAB)” (J Med Chem, 2012).
Counter-ions that a name gives are not always drawn. Active and inactive are the calls of the source. The rule behind the calls is not given here.

Key:
[1] = tested on: Rattus norvegicus; test: Inhibition of histamine-induced gastric acid secretion in pylorus-ligated Sprague Dawley rat at 1 mg/kg, iv administered 3 mins prior to histamine challenge measured after 3 hrs; assay type: functional; conditions: Stomach
[2] = Lipophilicity, log D of compound at pH 7.4; assay type: physicochemical; conditions: buffer
[3] = Inhibition of swine H+/K+-ATPase after 30 mins by colorimetry; design: species or system Sus scrofa
[4] = tested on: Canis familiaris; test: Inhibition histamine-induced gastric acid secretion in Heidenhain-pouch dog at 1 mg/kg, po measured after 2 days; assay type: functional, organism-based; design: dose 1 mg/kg; conditions: Canis lupus familiaris, Stomach
[5] = tested on: Rattus norvegicus; test: Inhibition of histamine-induced gastric acid secretion in po dosed pylorus-ligated Sprague-Dawley rat measured after 3 hrs post histamine challenge; assay type: functional, organism-based; conditions: Stomach
[6] = tested on: Rattus norvegicus; test: Complete inhibition of histamine-induced gastric acid secretion in pylorus-ligated Sprague Dawley rat at 4 mg/kg, po measured after 3 hrs post histamine challenge; assay type: functional, organism-based; design: dose 4 mg/kg; conditions: Stomach
[7] = tested on: Canis familiaris; test: Inhibition histamine-induced gastric acid secretion in Heidenhain-pouch dog at 1 mg/kg, po administered 1 day post histamine challenge measured for 3 consecutive 30 mins time period after compound dosing; assay type: functional, organism-based; design: dose 1 mg/kg; conditions: Canis lupus familiaris, Stomach
[8] = tested on: Rattus norvegicus; test: Inhibition of histamine-induced gastric acid secretion in pylorus-ligated Sprague-Dawley rat at 8 mg/kg, po measured after 3 hrs post histamine challenge; assay type: functional, organism-based; design: dose 8 mg/kg; conditions: Stomach
[9] = tested on: Canis familiaris; test: Inhibition histamine-induced gastric acid secretion in Heidenhain-pouch dog at 1 mg/kg, po administered 1 tp 48 hrs prior histamine challenge measured for 3 consecutive 30 mins time period after compound dosing; assay type: functional, organism-based; design: dose 1 mg/kg; conditions: Canis lupus familiaris, Stomach

Row | Compound | inhibition in vivo at 1 mg/kg [1] | logD [2] | IC50 [3] | other results
1 | CNCc1cc(-c2ccccc2)n(S(=O)(=O)c2ccc(C)nc2)c1 | 83% | 1 | 34 nM | 
2 | CNCc1cc(-c2ccccc2F)n(S(=O)(=O)c2cccnc2)c1 [VONOPRAZAN FUMARATE] | 98% | 0.4 | 19 nM | inhibition [4]: Active; inhibition [5]: Dose-dependent effect; inhibition [6]: Active; inhibition [7]: Active
3 | CNCc1cc(-c2ccccc2)n(S(=O)(=O)c2ccccn2)c1 |  |  | 170 nM | 
4 | CNCc1cc(-c2ccccc2)n(S(=O)(=O)c2ccc(OC)nc2)c1 | 95% | 1.7 | 13 nM | 
5 | CNCc1cc(-c2ccccc2)n(S(=O)(=O)c2ccc(OC)cc2)c1 | 95% | 1.5 | 30 nM | 
6 | CNCc1cc(-c2ccccc2)n(S(=O)(=O)c2cccc(OC)c2)c1 |  |  | 11 nM | 
7 | CNCc1cc(-c2ccccc2CO)n(S(=O)(=O)c2cccnc2)c1 |  | -0.3 | 2200 nM | 
8 | CNCc1cc(-c2ccccc2)n(S(=O)(=O)c2cccc(S(C)(=O)=O)c2)c1 |  |  | 78 nM | 
9 | CNCc1cc(-c2ccccc2)n(S(=O)(=O)c2ccc(C#N)nc2)c1 | 17% | 1.4 | 110 nM | 
10 | CNCc1cc(-c2ccccc2)n(S(=O)(=O)c2cccnc2)c1 | 85% | 0.7 | 16 nM | 
11 | CNCc1cc(-c2ccccc2)n(S(=O)(=O)c2ccsc2)c1 | 55% | 1.1 | 16 nM | 
12 | CNCc1cc(-c2ccccc2)n(S(=O)(=O)c2cccs2)c1 | 69% | 1.2 | 51 nM | 
13 | CNCc1cc(-c2ccccc2C)n(S(=O)(=O)c2cccnc2)c1 | 95% | 1 | 46 nM | 
14 | CNCc1cc(-c2ccccc2C#N)n(S(=O)(=O)c2cccnc2)c1 | 68% | -0.2 | 230 nM | 
15 | CNCc1cc(-c2cccc(F)c2)n(S(=O)(=O)c2cccnc2)c1 | 92% | 1 | 20 nM | 
16 | CNCc1cc(-c2ccccc2C(F)(F)F)n(S(=O)(=O)c2cccnc2)c1 | 92% | 0.8 | 75 nM | 
17 | CNCc1cc(-c2ccc(F)cc2)n(S(=O)(=O)c2cccnc2)c1 | 85% | 1 | 46 nM | 
18 | CNCc1cc(-c2ccccc2Cl)n(S(=O)(=O)c2cccnc2)c1 | 97% | 0.7 | 17 nM | 
19 | Cc1c(OCC(F)(F)F)ccnc1C[S+]([O-])c1nc2ccccc2[nH]1 (stereo not drawn) |  |  |  | inhibition [8]: inactive; inhibition [9]: Active
